Here are results for three molecules from patent US12391648B2, “Pyridyloxy thioester derivative and preparation method therefor, herbicidal composition, and application” (Qingdao Kingagroot Chemical Compound Co., Ltd., priority 2018, dated 2025).

Structures are written as SMILES.

For the first data set, the system named is Monochoria vaginalis. Nature of the data set: Weed control effect evaluation in rice field. The note with it: 1000 g/ha, paddy water application at 0.5 leaf stage, 14 days after treatment, weeds resistant to pyrazosulfuron-ethyl and penoxsulam. In kind it is in vivo. An excerpt:
(§1) The activity level standard of harmful plants destruction (i. e. growth inhibition rate) is as follows: • Level 5: the growth inhibition rate is greater than 85%; • Level 4: the growth inhibition rate is equal to or greater than 60% and less than 85%; • Level 3: the growth inhibition rate is equal to or greater than 40% and less than 60%; • Level 2: the growth inhibition rate is equal to or greater than 20% and less than 40%; • Level 1: the growth inhibition rate is equal to or greater than 5% and less than 20%; • Level 0: the growth inhibition rate is less than 5%;
(§2) Transplanted rice safety evaluation and weed control effect evaluation in rice field:
Rice field soil was loaded into a 1/1,000,000 ha pot. The seeds of Monochoria vaginalis were sowed and gently covered with soil, then left to stand still in greenhouse in the state of 0.5-1 cm of water storage. It was kept at 3-4 cm of water storage thereafter. The weeds were treated by dripping the WP or SC water diluents prepared according to the common preparation method of the compounds of the present invention with pipette homogeneously to achieve specified effective amount when Monochoria vaginalis reached 0. 5 leaf stage.
(§3) The fertility condition of Monochoria vaginalis 14 days and rice 21 days after the treatment of the compound of the invention with the naked eye.
Note: The seeds of Monochoria vaginalis were collected from Heilongjing Province of China.
Regarding `CSC(=O)C(C)Oc1nc(F)c(Cl)c(NCc2ccco2)c1Cl` (stereo not drawn) [Compound 130], the “Monochoria Vaginalis, activity standard level 0-5” value is given as 5 (Level 5: the growth inhibition rate is greater than 85%).

For the molecule `CC(Cl)CCSC(=O)C(C)Oc1nc(F)c(Cl)c(N)c1Cl` (stereo not drawn) [Compound 77], the “Monochoria Vaginalis, activity standard level 0-5” value is 5 (Level 5: the growth inhibition rate is greater than 85%).

As to `CSC(=O)C(C)Oc1nc(F)c(Cl)c(N)c1Cl` (stereo not drawn) [Compound 4], the “Monochoria Vaginalis, activity standard level 0-5” value is given as 5 (Level 5: the growth inhibition rate is greater than 85%).

In another data set the test system is Japonica rice. Description: Post-emergence test experiment (Table 4), crop safety. The format is in vivo. The settings on record: 600 g/ha active ingredient, plus water 450 kg/ha, after 3 weeks.
From the text: as §1
(§4) The above described growth inhibition rate is fresh weight inhibition rate.
(§5) Post-emergence test experiment: Monocotyledonous and dicotyledonous weed seeds and main crop seeds (i. e. wheat, corn, rice, soybean, cotton, oilseed, millet and sorghum.) were put into a plastic pot loaded with soil. Then covered with 0.5-2 cm soil, the seeds were allowed to grow in good greenhouse environment. The test plants were treated at 2-3 leaf stage 2 weeks after sowing. The test compounds of the invention were dissolved with acetone respectively, then added with tween-80, and using 1.5 liters per hectare of an emulsible concentrate of methyl oleate as a synergist, and diluted by certain amount of water to certain concentration. The solution was sprayed to the plants with a sprayer. Then the plants were cultured for 3 weeks in the greenhouse, and the experiment result of weed controlling effect after 3 weeks was listed in tables 3-4.
(§6) […] Echinochloa crusgalli and Cyperus iria were collected from Ningxia Hui Autonomous Region of China, which had evolved resistance to ALS inhibiting herbicides. • Control compound A:
In the case of `CSC(=O)C(C)Oc1nc(F)c(Cl)c(NCc2ccco2)c1Cl` (stereo not drawn) [Compound 130], the “Japonica rice, activity level (growth inhibition rate)” value is 0 (Level 0: the growth inhibition rate is less than 5%).

In the case of `CC(Cl)CCSC(=O)C(C)Oc1nc(F)c(Cl)c(N)c1Cl` (stereo not drawn) [Compound 77], the “Japonica rice, activity level (growth inhibition rate)” value is 0 (Level 0: the growth inhibition rate is less than 5%).

`CSC(=O)C(C)Oc1nc(F)c(Cl)c(N)c1Cl` (stereo not drawn) [Compound 4]: the “Japonica rice, activity level (growth inhibition rate)” value is 0 (Level 0: the growth inhibition rate is less than 5%).

A further data set deals with Indica rice. Described as above. The format is in vivo. The settings on record: 600 g/ha active ingredient, plus water 450 kg/ha, after 3 weeks.
From the text: as §1, §4, §5, §6
Consider `CSC(=O)C(C)Oc1nc(F)c(Cl)c(NCc2ccco2)c1Cl` (stereo not drawn) [Compound 130], for which the “Indica rice, activity level (growth inhibition rate)” value is listed as 0 (Level 0: the growth inhibition rate is less than 5%).

On to `CC(Cl)CCSC(=O)C(C)Oc1nc(F)c(Cl)c(N)c1Cl` (stereo not drawn) [Compound 77], for which the “Indica rice, activity level (growth inhibition rate)” value is given as 0 (Level 0: the growth inhibition rate is less than 5%).

Take `CSC(=O)C(C)Oc1nc(F)c(Cl)c(N)c1Cl` (stereo not drawn) [Compound 4]: the “Indica rice, activity level (growth inhibition rate)” value is recorded as 0 (Level 0: the growth inhibition rate is less than 5%).

In another data set the test system is rice (japonica rice). Description: Transplanted rice safety evaluation. The format is in vivo. The settings on record: 1000 g/ha, transplanted 3-leaf stage japonica rice, treated 5 days after transplantation, 21 days after treatment.
From the text: as §1, §2
In addition, the rice field soil that loaded into the 1/1,000,000 ha pot was leveled to keep water storage at 3-4 cm depth. The 3-leaf stage rice (japonica rice) was transplanted at 3 cm of transplanting depth the next day. The compound of the present invention was treated by the same way after 5 days of transplantation.
as §3
As to `CSC(=O)C(C)Oc1nc(F)c(Cl)c(NCc2ccco2)c1Cl` (stereo not drawn) [Compound 130], the “Rice, activity standard level 0-5 (safety)” value (“Rice … (safety)” below) is recorded as 0 (Level 0: the growth inhibition rate is less than 5%).

On to `CC(Cl)CCSC(=O)C(C)Oc1nc(F)c(Cl)c(N)c1Cl` (stereo not drawn) [Compound 77], for which the “Rice … (safety)” value is reported as 0 (Level 0: the growth inhibition rate is less than 5%).

Turning to `CSC(=O)C(C)Oc1nc(F)c(Cl)c(N)c1Cl` (stereo not drawn) [Compound 4], the “Rice … (safety)” value is reported as 0 (Level 0: the growth inhibition rate is less than 5%).

The subject of another data set is Leptochloa chinensis. Nature of the data set: Post-emergence test experiment (Table 3, 1000 g/ha). The note with it: post-emergence spray, after 3 weeks, fresh weight inhibition. In kind it is in vivo. In outline:
(§7)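 Activity graded levels 0-5 by fresh-weight inhibition (level 5 above 85%, level 0 below 5%), assessed 3 weeks after treatment. Plants grown in greenhouse pots were sprayed post-emergence at 2-3 leaves using acetone/tween-80 solutions with methyl oleate synergist (1.5 L/ha).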
For the molecule `CSC(=O)C(C)Oc1nc(F)c(Cl)c(NCc2ccco2)c1Cl` (stereo not drawn) [Compound 130], the “Activity level (growth inhibition rate) Leptochloa chinensis” value is 5 (Level 5: the growth inhibition rate is greater than 85%).

Regarding `CC(Cl)CCSC(=O)C(C)Oc1nc(F)c(Cl)c(N)c1Cl` (stereo not drawn) [Compound 77], the “Activity level (growth inhibition rate) Leptochloa chinensis” value is recorded as 5 (Level 5: the growth inhibition rate is greater than 85%).

In the case of `CSC(=O)C(C)Oc1nc(F)c(Cl)c(N)c1Cl` (stereo not drawn) [Compound 4], the “Activity level (growth inhibition rate) Leptochloa chinensis” value is reported as 5 (Level 5: the growth inhibition rate is greater than 85%).

The next data set relates to Monochoria vaginalis. Described as above. The settings on record: post-emergence spray, after 3 weeks, fresh weight inhibition. The format is in vivo. The method, boiled down: as §7
As for `CSC(=O)C(C)Oc1nc(F)c(Cl)c(NCc2ccco2)c1Cl` (stereo not drawn) [Compound 130], the “Activity level (growth inhibition rate) Monochoria Vaginalis” value is 5 (Level 5: the growth inhibition rate is greater than 85%).

`CC(Cl)CCSC(=O)C(C)Oc1nc(F)c(Cl)c(N)c1Cl` (stereo not drawn) [Compound 77]: the “Activity level (growth inhibition rate) Monochoria Vaginalis” value was 5 (Level 5: the growth inhibition rate is greater than 85%).

Consider `CSC(=O)C(C)Oc1nc(F)c(Cl)c(N)c1Cl` (stereo not drawn) [Compound 4], for which the “Activity level (growth inhibition rate) Monochoria Vaginalis” value is on record as 5 (Level 5: the growth inhibition rate is greater than 85%).

In the next data set the test system is Digitaria sanguinalis. The data set is described as above. In kind it is in vivo. The note with it: post-emergence spray, after 3 weeks, fresh weight inhibition. The method, boiled down: as §7
Consider `CSC(=O)C(C)Oc1nc(F)c(Cl)c(NCc2ccco2)c1Cl` (stereo not drawn) [Compound 130], for which the “Activity level (growth inhibition rate) Digitaria sanguinalis” value is given as 5 (Level 5: the growth inhibition rate is greater than 85%).

With `CC(Cl)CCSC(=O)C(C)Oc1nc(F)c(Cl)c(N)c1Cl` (stereo not drawn) [Compound 77], the “Activity level (growth inhibition rate) Digitaria sanguinalis” value is recorded as 5 (Level 5: the growth inhibition rate is greater than 85%).

For the molecule `CSC(=O)C(C)Oc1nc(F)c(Cl)c(N)c1Cl` (stereo not drawn) [Compound 4], the “Activity level (growth inhibition rate) Digitaria sanguinalis” value was 5 (Level 5: the growth inhibition rate is greater than 85%).

The subject of a further data set is Abutilon theophrasti. The data set is described as above. In kind it is in vivo. The settings on record: post-emergence spray, after 3 weeks, fresh weight inhibition. The method, boiled down:
as §7
`CSC(=O)C(C)Oc1nc(F)c(Cl)c(NCc2ccco2)c1Cl` (stereo not drawn) [Compound 130]: the “Activity level (growth inhibition rate) Abutilon theophrasti” value was 5 (Level 5: the growth inhibition rate is greater than 85%).

Regarding `CC(Cl)CCSC(=O)C(C)Oc1nc(F)c(Cl)c(N)c1Cl` (stereo not drawn) [Compound 77], the “Activity level (growth inhibition rate) Abutilon theophrasti” value was 5 (Level 5: the growth inhibition rate is greater than 85%).

On to `CSC(=O)C(C)Oc1nc(F)c(Cl)c(N)c1Cl` (stereo not drawn) [Compound 4], for which the “Activity level (growth inhibition rate) Abutilon theophrasti” value was 5 (Level 5: the growth inhibition rate is greater than 85%).

For a further data set, the system named is Galium spurium. Described as above. The settings on record: post-emergence spray, after 3 weeks, fresh weight inhibition. In kind it is in vivo. In outline:
as §7
`CSC(=O)C(C)Oc1nc(F)c(Cl)c(NCc2ccco2)c1Cl` (stereo not drawn) [Compound 130]: the “Activity level (growth inhibition rate) Galium spurium” value is listed as 5 (Level 5: the growth inhibition rate is greater than 85%).

For the molecule `CC(Cl)CCSC(=O)C(C)Oc1nc(F)c(Cl)c(N)c1Cl` (stereo not drawn) [Compound 77], the “Activity level (growth inhibition rate) Galium spurium” value is on record as 5 (Level 5: the growth inhibition rate is greater than 85%).

As to `CSC(=O)C(C)Oc1nc(F)c(Cl)c(N)c1Cl` (stereo not drawn) [Compound 4], the “Activity level (growth inhibition rate) Galium spurium” value is 5 (Level 5: the growth inhibition rate is greater than 85%).

For the next data set, the system named is Setaria viridis. The data set is described as above. In kind it is in vivo. The note with it: post-emergence spray, after 3 weeks, fresh weight inhibition. The method, boiled down:
as §7
For `CSC(=O)C(C)Oc1nc(F)c(Cl)c(NCc2ccco2)c1Cl` (stereo not drawn) [Compound 130], the “Activity level (growth inhibition rate) Setaria viridis” value was 5 (Level 5: the growth inhibition rate is greater than 85%).

Take `CC(Cl)CCSC(=O)C(C)Oc1nc(F)c(Cl)c(N)c1Cl` (stereo not drawn) [Compound 77]: the “Activity level (growth inhibition rate) Setaria viridis” value is given as 5 (Level 5: the growth inhibition rate is greater than 85%).

For `CSC(=O)C(C)Oc1nc(F)c(Cl)c(N)c1Cl` (stereo not drawn) [Compound 4], the “Activity level (growth inhibition rate) Setaria viridis” value is given as 5 (Level 5: the growth inhibition rate is greater than 85%).

The subject of another data set is ALS resistant Cyperus iria. Nature of the data set: Post-emergence test experiment (Table 4), weed control. In kind it is in vivo. The settings on record: 600 g/ha active ingredient, plus water 450 kg/ha, after 3 weeks.
From the text: as §1, §4, §5, §6
Consider `CSC(=O)C(C)Oc1nc(F)c(Cl)c(NCc2ccco2)c1Cl` (stereo not drawn) [Compound 130], for which the “ALS resistant Cyperus iria, activity level (growth inhibition rate)” value was 5 (Level 5: the growth inhibition rate is greater than 85%).

For the molecule `CC(Cl)CCSC(=O)C(C)Oc1nc(F)c(Cl)c(N)c1Cl` (stereo not drawn) [Compound 77], the “ALS resistant Cyperus iria, activity level (growth inhibition rate)” value was 5 (Level 5: the growth inhibition rate is greater than 85%).

As to `CSC(=O)C(C)Oc1nc(F)c(Cl)c(N)c1Cl` (stereo not drawn) [Compound 4], the “ALS resistant Cyperus iria, activity level (growth inhibition rate)” value is reported as 5 (Level 5: the growth inhibition rate is greater than 85%).

Another data set deals with ALS resistant Echinochloa crusgalli. The data set is described as above. The format is in vivo. The settings on record: 600 g/ha active ingredient, plus water 450 kg/ha, after 3 weeks.
From the text: as §1, §4, §5, §6
Take `CSC(=O)C(C)Oc1nc(F)c(Cl)c(NCc2ccco2)c1Cl` (stereo not drawn) [Compound 130]: the “ALS resistant Echinochloa crusgalli, activity level (growth inhibition rate)” value is given as 5 (Level 5: the growth inhibition rate is greater than 85%).

For `CC(Cl)CCSC(=O)C(C)Oc1nc(F)c(Cl)c(N)c1Cl` (stereo not drawn) [Compound 77], the “ALS resistant Echinochloa crusgalli, activity level (growth inhibition rate)” value was 5 (Level 5: the growth inhibition rate is greater than 85%).

On to `CSC(=O)C(C)Oc1nc(F)c(Cl)c(N)c1Cl` (stereo not drawn) [Compound 4], for which the “ALS resistant Echinochloa crusgalli, activity level (growth inhibition rate)” value is on record as 5 (Level 5: the growth inhibition rate is greater than 85%).
